A word on the EC50: it is the concentration at which the effect is half-maximal. High values mean a less potent agent, low ones a more potent agent.

The record followed here is patent US9115073B2, “1,3-diphenylpropane derivatives, preparations and uses thereof” (GENFIT, priority 2011, dated 2015).

Assay type in all cases: cell-based
One assay addresses T1, hPPARalpha (Homo sapiens, UniProt Q07869).
T1 construct: Gal4-hPPARα(LBD); Gal4 (fusion partner); expressed in transfected cells; host or cells: COS-7 (monkey kidney)
T1 sequence (Q07869 239-466 limits assumed): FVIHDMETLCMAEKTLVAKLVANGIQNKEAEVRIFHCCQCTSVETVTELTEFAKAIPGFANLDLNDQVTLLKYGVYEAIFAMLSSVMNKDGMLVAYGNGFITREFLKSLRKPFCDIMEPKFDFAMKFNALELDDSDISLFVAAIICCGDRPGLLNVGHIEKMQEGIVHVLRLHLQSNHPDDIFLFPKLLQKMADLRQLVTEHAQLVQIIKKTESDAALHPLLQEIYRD
Description: Gal4-hPPARalpha transactivation assay in COS-7 cells (luciferase). To be noted: for Gal4-hPPARα(LBD) TOP (% ref): maximal relative activation vs reference; for Emax: COS-7, maximal relative activation vs reference, read-out: Gal4-hPPARα(LBD) TOP (% ref); for EC50: Gal4-hPPARα(LBD) transactivation. The method, then: (§1) Monkey kidney COS-7 cells were maintained in standard culture conditions (Dulbecco's modified Eagle's minimal medium: DMEM) supplemented with 10% fetal calf serum, 1% sodium pyruvate, 1% essential amino acids and 1% antibiotics at 37° C. in a humidified atmosphere of 5% C02 and 95% air. The medium was changed every 2 days. All tested compounds were dissolved in DMSO. Cells were transfected using 2 μl JetPEI™ (Polyplus transfection)/μg of DNA. Briefly, 40 μg of DNA was transfected in a 225 cm^2 culture flask of adherent COS-7 cells (respecting the 1/50 ratio between the Gal4(RE)_TkpGL3 plasmid and the plasmid coding the nuclear receptor of interest (pGal4-hPPARalpha, pGal4-hPPARgamma, pGal4-hPPARdelta, pGal4-mPPARalpha, pGal4-mPPARgamma and pGal4-mPPARdelta) or of the pGal4phi plasmid (negative control). Cells were enzymatically detached and seeded in 384 well plates at the density of 20,000 cells/well and then incubated for 4 hours at 37° C. The activation was automatically performed, by using the Genesis Freedom 200™ (Tecan), in fresh medium supplemented with 2% of synthetic serum, free of lipids (Ultroser™, Biosepra) supplemented with the tested compounds (compound of interest or reference molecules) or vehicle (DMSO 0.1%). The luciferase activity was measured with the Steady-Glo Luciferase Assay System (Promega, Madison, Wis.). All transactivation experiments were performed at least 2 times. Activation curves were realized using SigmaPlot® (version 7.0 from SPSS Inc.) software and took into account all the experimental points. SimgaPlot® was also used to fit the standard curves and then determine the specific EC50 values, maximum effect versus reference molecules and Hill slope. The Emax effect of each new ligand is represented as the ratio of the maximal induction (plateau) obtained with the new ligand and the induction obtained with the corresponding reference compound. The reference compounds for PPARalpha, PPARgamma and PPARdelta were fenofibrate (100 μM), rosiglitazone (10 μM) and GW501516 (1 μM).

For a further assay, the target named is T2, hPPARgamma (Homo sapiens, UniProt P37231).
T2 construct: Gal4-hPPARγ(LBD); Gal4 (fusion partner); expressed in transfected cells; host or cells: COS-7 (monkey kidney)
T2 sequence (P37231 238-503 limits assumed): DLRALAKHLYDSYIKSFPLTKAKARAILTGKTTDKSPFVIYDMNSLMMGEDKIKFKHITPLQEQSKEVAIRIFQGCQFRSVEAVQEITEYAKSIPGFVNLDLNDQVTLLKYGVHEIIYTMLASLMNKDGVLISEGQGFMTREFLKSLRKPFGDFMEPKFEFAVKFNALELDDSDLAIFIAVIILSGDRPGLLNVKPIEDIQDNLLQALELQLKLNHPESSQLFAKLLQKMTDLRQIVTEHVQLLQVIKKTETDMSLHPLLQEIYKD
As to the kind of experiment: Gal4-hPPARgamma transactivation assay in COS-7 cells (luciferase). As to conditions: for Gal4-hPPARγ(LBD) TOP (% ref): maximal relative activation vs reference; for Emax: COS-7, maximal relative activation vs reference, read-out: Gal4-hPPARγ(LBD) TOP (% ref); for EC50: Gal4-hPPARγ(LBD) transactivation. The method, then:
as §1

The next assay deals with T3, hPPARdelta (Homo sapiens, UniProt Q03181).
T3 construct: Gal4-hPPARδ(LBD); Gal4 (fusion partner); expressed in transfected cells; host or cells: COS-7 (monkey kidney)
T3 sequence (Q03181 211-439 limits assumed): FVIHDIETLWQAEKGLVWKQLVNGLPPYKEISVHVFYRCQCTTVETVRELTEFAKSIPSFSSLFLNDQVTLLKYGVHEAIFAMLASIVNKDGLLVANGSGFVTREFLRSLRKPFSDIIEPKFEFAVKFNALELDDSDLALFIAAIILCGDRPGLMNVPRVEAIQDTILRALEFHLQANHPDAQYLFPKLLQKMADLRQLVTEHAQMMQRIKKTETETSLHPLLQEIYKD
Description: Gal4-hPPARdelta transactivation assay in COS-7 cells (luciferase). To be noted: for Gal4-hPPARδ(LBD) TOP (% ref): maximal relative activation vs reference; for Emax: COS-7, maximal relative activation vs reference, read-out: Gal4-hPPARδ(LBD) TOP (% ref); for EC50: Gal4-hPPARδ(LBD) transactivation. The method, then:
as §1

As for `COC(c1ccccc1OC(F)(F)F)C1CC1c1cc(C)c(OC(C)(C)C(=O)O)c(C)c1` (racemic) [Cpd 13-2, 2-(4-(2-(methoxy(2-(trifluoromethyloxy)phenyl)methyl)cyclopropyl)-2,6-dimethylphenoxy)-2-methylpropanoic acid], the “Gal4-hPPARα(LBD) TOP (% ref)” value on hPPARalpha is recorded as 28 % ref. Moreover, the “Gal4-hPPARγ(LBD) TOP (% ref)” value at hPPARgamma is listed as 71 % ref. Also, the “Gal4-hPPARδ(LBD) TOP (% ref)” value on hPPARdelta was determined as 57 % ref.
Take `COC(c1ccc(OC(F)(F)F)cc1)C1CC1c1cc(C)c(OC(C)(C)C(=O)O)c(C)c1` (racemic) [Cpd 14-2, 2-(4-(2-(methoxy(4-(trifluoromethoxy)phenyl)methyl)cyclopropyl)-2,6-dimethylphenoxy)-2-methylpropanoic acid]: the “Gal4-hPPARα(LBD) TOP (% ref)” value on hPPARalpha (listed as cpd 14-2) was determined as 58 % ref. Also, at hPPARgamma (listed as cpd 14-2), the “Gal4-hPPARγ(LBD) TOP (% ref)” value came out at 58 % ref. The “Gal4-hPPARδ(LBD) TOP (% ref)” value at hPPARdelta (listed as cpd 14-2) is on record as 74 % ref.
Regarding `COC(c1ccc(OC(F)(F)F)cc1)C1CC1c1ccc(OC(C)(C)C(=O)O)c(C(C)C)c1` (racemic) [Cpd 15-2, 2-(2-isopropyl-4-(2-(methoxy(4-(trifluoromethoxy)phenyl)methyl)cyclopropyl)phenoxy)-2-methylpropanoic acid], the “Gal4-hPPARα(LBD) TOP (% ref)” value at hPPARalpha turned out to be 31 % ref. For the same compound, the “Gal4-hPPARγ(LBD) TOP (% ref)” value at hPPARgamma came out at 69 % ref. At hPPARdelta, the “Gal4-hPPARδ(LBD) TOP (% ref)” value came out at 96 % ref.
For `COC(c1ccc(C(F)(F)F)cc1C(F)(F)F)C1CC1c1cc(C)c(OC(C)(C)C(=O)O)c(C)c1` (racemic) [Cpd 16-2, 2-(4-(2-((2,4-bis(trifluoromethyl)phenyl)(methoxy)methyl)cyclopropyl)-2,6-dimethylphenoxy)-2-methylpropanoic acid], in that order: 50 % ref, 88 % ref and 71 % ref.
Turning to `COc1cc(OC(F)(F)F)ccc1C(OC)C1CC1c1cc(C)c(OC(C)(C)C(=O)O)c(C)c1` (racemic) [Cpd 17-1, 2-(4-(2-(methoxy(2-methoxy-4-(trifluoromethoxy)phenyl)methyl)cyclopropyl)-2,6-dimethylphenoxy)-2-methylpropanoic acid], the Emax is 49% on hPPARalpha, 75% at hPPARgamma and 86% at hPPARdelta. The values for the EC50 at hPPARalpha, at hPPARgamma and at hPPARdelta were 38 nM, 12 nM and 6 nM, respectively.
Turning to `CCCCCCOc1ccccc1C(OC)C1CC1c1cc(C)c(OC(C)(C)C(=O)O)c(C)c1` (racemic) [Cpd 18-1, 2-(4-(2-((2-(hexyloxy)phenyl)(methoxy)methyl)cyclopropyl)-2,6-dimethylphenoxy)-2-methylpropanoic acid], the Emax at hPPARalpha stood at 44%; at hPPARgamma, 84%; on hPPARdelta it was 78%. The EC50 at hPPARalpha amounted to 59 nM; on hPPARgamma, 26 nM; on hPPARdelta, 157 nM.
Consider `COC(c1ccc(OC(F)(F)F)cc1)C1CC1c1ccc(OC(C)(C)C(=O)O)c(Br)c1` (racemic) [Cpd 19-1, 2-(2-bromo-4-(2-(methoxy(4-(trifluoromethoxy)phenyl)methyl)cyclopropyl)phenoxy)-2-methylpropanoic acid], for which the results for the Emax on hPPARalpha, on hPPARgamma and at hPPARdelta were 53%, 64% and 100%, respectively. The EC50 stood at 157 nM at hPPARalpha, 97 nM at hPPARgamma and 26 nM on hPPARdelta.
`COC(c1ccc(OC(F)(F)F)cc1)C1CC1c1cc(F)c(OC(C)(C)C(=O)O)c(F)c1` (racemic) [Cpd 20-1, 2-(2,6-difluoro-4-(2-(methoxy(4-(trifluoromethoxy)phenyl)methyl)cyclopropyl)phenoxy)-2-methylpropanoic acid]: the Emax on hPPARalpha was found to be 50%; on hPPARgamma, 67%; at hPPARdelta, 84%. Moreover, the EC50 on hPPARalpha amounted to 143 nM; at hPPARgamma it was 230 nM; at hPPARdelta it was 87 nM.
`COC(c1ccc(OC(F)(F)F)cc1)C1CC1c1ccc(OC(C)(C)C(=O)O)c(C2CC2)c1` (racemic) [Cpd 21-1, 2-(2-cyclopropyl-4-(2-(methoxy(4-(trifluoromethoxy)phenyl)methyl)cyclopropyl)phenoxy)-2-methylpropanoic acid]: the Emax was found to be 17% on hPPARalpha, 48% at hPPARgamma and 88% on hPPARdelta. Further, the EC50 was 3650 nM at hPPARalpha, 828 nM at hPPARgamma and 3270 nM on hPPARdelta.
For the compound `COC(c1ccc(SC)cc1)C1CC1c1cc(C)c(OC(C)(C)C(=O)O)c(C)c1` (single isomer, unassigned) [Cpd 3-1, 2-(4-(2-(methoxy(4-(methylthio)phenyl)methyl)cyclopropyl)-2,6-dimethylphenoxy)-2-methylpropanoic acid], the Emax at hPPARalpha turned out to be 57%; at hPPARgamma it was 79%; at hPPARdelta it was 77%. Also, the EC50 worked out at 105 nM at hPPARalpha, 35 nM at hPPARgamma and 54 nM on hPPARdelta.
As to `COC(c1ccc(SC)cc1)C1CC1c1cc(C)c(OC(C)(C)C(=O)O)c(C)c1` (single isomer, unassigned) [Cpd 3-2, 2-(4-(2-(methoxy(4-(methylthio)phenyl)methyl)cyclopropyl)-2,6-dimethylphenoxy)-2-methylpropanoic acid], the EC50 at hPPARalpha is 139 nM; at hPPARgamma, 18 nM; on hPPARdelta it was 169 nM.
For `CCCCOC(c1ccc(OC(F)(F)F)cc1)C1CC1c1cc(C)c(OC(C)(C)C(=O)O)c(C)c1` (single isomer, unassigned) [Cpd 5-1, 2-(4-(2-(butyloxy(4-(trifluoromethoxy)phenyl)methyl)cyclopropyl)-2,6-dimethylphenoxy)-2-methylpropanoic acid], the Emax at hPPARalpha was found to be 44%; at hPPARgamma, 84%; on hPPARdelta, 62%. For the same compound, the EC50 at hPPARalpha came to 47 nM; at hPPARgamma, 143 nM; on hPPARdelta it was 34 nM.
Turning to `CCCCOC(c1ccc(OC(F)(F)F)cc1)C1CC1c1cc(C)c(OC(C)(C)C(=O)O)c(C)c1` (single isomer, unassigned) [Cpd 5-2, 2-(4-(2-(butyloxy(4-(trifluoromethoxy)phenyl)methyl)cyclopropyl)-2,6-dimethylphenoxy)-2-methylpropanoic acid], the EC50 on hPPARalpha was 54 nM; at hPPARgamma, 21 nM; at hPPARdelta it was 57 nM.
Turning to `Cc1cc(C2CC2C(OCc2ccccc2)c2ccc(OC(F)(F)F)cc2)cc(C)c1OC(C)(C)C(=O)O` (single isomer, unassigned) [Cpd 11-1, 2-(4-(2-(benzyloxy(4-(trifluoromethoxy)phenyl)methyl)cyclopropyl)-2,6-dimethylphenoxy)-2-methylpropanoic acid], the Emax on hPPARalpha was found to be 46%; at hPPARgamma, 86%; on hPPARdelta, 75%. Also, the concentration giving a half-maximal response (EC50) on hPPARalpha came to 21 nM; on hPPARgamma, 116 nM; at hPPARdelta, 79 nM.
